According to USRE46630E1, “Substituted 4-pyridones and their use as inhibitors of neutrophil elastase activity” (Boehringer Ingelheim International GmbH, priority 2012, dated 2017):

Target: T1, Human neutrophil elastase (Homo sapiens, UniProt P08246)
T1 construct: purchased Calbiochem 324681
T1 sequence (P08246 30-267): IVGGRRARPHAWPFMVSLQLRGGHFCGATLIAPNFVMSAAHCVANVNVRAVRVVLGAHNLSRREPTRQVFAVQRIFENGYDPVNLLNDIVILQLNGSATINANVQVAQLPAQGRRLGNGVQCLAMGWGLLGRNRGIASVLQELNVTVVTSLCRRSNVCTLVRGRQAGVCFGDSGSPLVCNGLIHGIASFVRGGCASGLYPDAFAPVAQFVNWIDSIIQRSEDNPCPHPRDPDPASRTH
Experiment: Human Neutrophil Elastase Assay
Type: biochemical
Conditions: Neutrophil Elastase assay; substrate MeOSuc-Ala-Ala-Pro-Val-AMC 250 μM; 15 min preincubation, 60 min incubation at room temperature; pH 7.5
How it was run: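 Run in 100 mM Tris, 500 mM NaCl, pH 7.5 with 0.01% BSA, with compounds prediluted in DMSO then buffer (5% DMSO final). Fluorescence was read at 380 nm excitation/460 nm emission after enzyme inactivation. Values were normalised to inactivated-enzyme (0%) and uninhibited-enzyme (100%) controls.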

| Structure (SMILES) | IC50 [nM] |
| --- | --- |
| CNC(=O)c1cn(C2CCc3cc(C#N)ccc32)c(C)c(-c2cccc(C(F)(F)F)c2)c1=O (centres unmarked) [Example 37, 1-(5-Cyano-indan-1-yl)-6-methyl-4-oxo-5-(3-trifluoromethyl-phenyl)-1,4-dihydro-pyridine-3-carboxylic acid methylamide] | 13.7 |
| CCNC(=O)c1cn(C(C)c2ccc(C#N)cc2)c(C)c(-c2ccnc(C(F)F)c2)c1=O (centres unmarked) [Example 38, 1-[1-(4-Cyano-phenyl)-ethyl]-2′-difluoromethyl-2-methyl-4-oxo-1,4-dihydro-[3,4′]bipyridinyl-5-carboxylic acid ethylamide] | 11 |
| Cc1c(-c2cccc(C(F)F)c2)c(=O)c(C(=O)NCc2ccc(S(C)(=O)=O)cc2)cn1Cc1ccc(C#N)c(F)c1 [Example 39, 1-(4-Cyano-3-fluoro-benzyl)-5-(3-difluoromethyl-phenyl)-6-methyl-4-oxo-1,4-dihydro-pyridine-3-carboxylic acid 4-methanesulfonyl-benzylamide] | < 1 |
| Cc1c(-c2cccc(C(F)F)c2)c(=O)c(C(=O)NCc2ccc(S(C)(=O)=O)cc2)cn1Cc1ccc(C#N)cn1 [Example 40, 1-(5-Cyano-pyridin-2-ylmethyl)-5-(3-difluoromethyl-phenyl)-6-methyl-4-oxo-1,4-dihydro-pyridine-3-carboxylic acid 4-methanesulfonyl-benzylamide] | < 1 |
| Cc1c(-c2cccc(C(F)F)c2)c(=O)c(C(=O)NCc2ccc(S(C)(=O)=O)cc2)cn1Cc1ccc(C#N)cc1F [Example 41, 1-(4-Cyano-2-fluoro-benzyl)-5-(3-difluoromethyl-phenyl)-6-methyl-4-oxo-1,4-dihydro-pyridine-3-carboxylic acid 4-methanesulfonyl-benzylamide] | < 1 |
| CNC(=O)c1cn(Cc2ccc(C#N)cc2F)c(C)c(-c2ccnc(C(F)(F)F)c2)c1=O [Example 42, 1-(4-Cyano-2-fluoro-benzyl)-2-methyl-4-oxo-2′-trifluoromethyl-1,4-dihydro-[3,4′]bipyridinyl-5-carboxylic acid methylamide] | 46 |
| CNC(=O)c1cn(Cc2ccc(C#N)c(F)c2)c(C)c(-c2ccnc(C(F)(F)F)c2)c1=O [Example 43, 1-(4-Cyano-3-fluoro-benzyl)-2-methyl-4-oxo-2′-trifluoromethyl-1,4-dihydro-[3,4′]bipyridinyl-5-carboxylic acid methylamide] | 48.4 |
| CNC(=O)c1cn(Cc2ccc(C#N)cn2)c(C)c(-c2ccnc(C(F)(F)F)c2)c1=O [Example 44, 1-(5-Cyano-pyridin-2-ylmethyl)-2-methyl-4-oxo-2′-trifluoromethyl-1,4-dihydro-[3,4′]bipyridinyl-5-carboxylic acid methylamide] | 94.6 |
| Cc1c(-c2cccc(C(F)(F)F)c2)c(=O)c(C(=O)NCc2ccc(S(C)(=O)=O)cc2)cn1C1(c2ccc(C#N)cc2)CC1 [Example 45, 1-[1-(4-Cyano-phenyl)-cyclopropyl]-6-methyl-4-oxo-5-(3-trifluoromethyl-phenyl)-1,4-dihydro-pyridine-3-carboxylic acid 4-methanesulfonyl-benzylamide] | 4.6 |
| Cc1c(-c2cccc(C(F)(F)F)c2)c(=O)c(C(=O)NCC#N)cn1Cc1ccc(C#N)cc1 [Example 46, 1-(4-Cyano-benzyl)-6-methyl-4-oxo-5-(3-trifluoromethyl-phenyl)-1,4-dihydro-pyridine-3-carboxylic acid cyanomethyl-amide] | 2.3 |

Continued, values first:

| IC50 [nM] | Structure (SMILES) |
| --- | --- |
| 12.9 | COCCNC(=O)c1cn(C(C)c2ccc(C#N)cn2)c(C)c(-c2cccc(C(F)(F)F)c2)c1=O (centres unmarked) [Example 47.1] |
| 7.3 | Cc1c(-c2cccc(C(F)(F)F)c2)c(=O)c(C(=O)NC2CCNC2=O)cn1C(C)c1ccc(C#N)cn1 (centres unmarked) [Example 47.2] |
| 10.7 | Cc1c(-c2cccc(C(F)(F)F)c2)c(=O)c(C(=O)NCC(F)(F)F)cn1C(C)c1ccc(C#N)cn1 (centres unmarked) [Example 47.3] |
| 12.2 | Cc1c(-c2cccc(C(F)(F)F)c2)c(=O)c(C(=O)NCCC(C)O)cn1C(C)c1ccc(C#N)cn1 (centres unmarked) [Example 47.4] |
| 16.7 | Cc1c(-c2cccc(C(F)(F)F)c2)c(=O)c(C(=O)NCC2CC2)cn1C(C)c1ccc(C#N)cn1 (centres unmarked) [Example 47.5] |
| 12 | Cc1c(-c2cccc(C(F)(F)F)c2)c(=O)c(C(=O)NCCF)cn1C(C)c1ccc(C#N)cn1 (centres unmarked) [Example 47.6] |
| 30.1 | Cc1c(-c2cccc(C(F)(F)F)c2)c(=O)c(C(=O)NCC2(O)CC2)cn1C(C)c1ccc(C#N)cn1 (centres unmarked) [Example 47.7] |
| 67.2 | Cc1c(-c2cccc(C(F)(F)F)c2)c(=O)c(C(=O)NC2CCOC2)cn1C(C)c1ccc(C#N)cn1 (centres unmarked) [Example 47.9] |
| 19.2 | Cc1c(-c2cccc(C(F)(F)F)c2)c(=O)c(C(=O)NC2CCOCC2)cn1C(C)c1ccc(C#N)cn1 (centres unmarked) [Example 47.10] |
| 63.5 | Cc1c(-c2cccc(C(F)(F)F)c2)c(=O)c(C(=O)NCC(C)(C)O)cn1C(C)c1ccc(C#N)cn1 (centres unmarked) [Example 47.11] |
| 7.3 | Cc1c(-c2cccc(C(F)(F)F)c2)c(=O)c(C(=O)NC2CCN(C)C2=O)cn1C(C)c1ccc(C#N)cn1 (centres unmarked) [Example 47.12] |
| < 1 | Cc1c(-c2cccc(C(F)(F)F)c2)c(=O)c(C(=O)NCc2ccc(S(C)(=O)=O)cc2)cn1C(C)c1ccc(C#N)cn1 (centres unmarked) [Example 47.13] |
| 6.2 | Cc1c(-c2cccc(C(F)(F)F)c2)c(=O)c(C(=O)NC(C)C#N)cn1C(C)c1ccc(C#N)cn1 (centres unmarked) [Example 47.16] |
| 6.4 | Cc1c(-c2cccc(C(F)(F)F)c2)c(=O)c(C(=O)NC2(C#N)CC2)cn1C(C)c1ccc(C#N)cn1 (centres unmarked) [Example 47.18] |
| 10.3 | Cc1c(-c2cccc(C(F)(F)F)c2)c(=O)c(C(=O)NCC(F)F)cn1C(C)c1ccc(C#N)cn1 (centres unmarked) [Example 47.19] |
| 2.5 | Cc1c(-c2cccc(C(F)(F)F)c2)c(=O)c(C(=O)NCC#N)cn1C(C)c1ccc(C#N)cn1 (centres unmarked) [Example 47.20] |
